This passage reports EC50, Emax and Ki results from patent US20200148646A1, “6-S[…] 7-S[…] ANALOGS AND THE USE THEREOF” (Purdue Pharma, L.P., priority 2013, published 2020).

Assay [1] deals with T1, human κ opioid receptor (Homo sapiens, UniProt P41145). As to the kind of experiment: κ-opioid receptor [35S]GTPγS functional assay, HEK-293 or CHO cells. It is filed as biochemical. On the set-up: expressed in transfected cells. Particulars: for Emax: HEK-293 or CHO cells, relative to U69,593. The protocol: Membranes from recombinant HEK-293 cells, CHO or U-2 OS cells expressing the recombinant human K opioid receptor (K) were prepared by lysing cells in ice cold hypotonic buffer (2.5 mM MgCl2, 50 mM HEPES, pH 7.4) (10 mL/10 cm dish) followed by homogenization with a tissue grinder/Teflon pestle. Functional [^35S]GTPγS binding assays were conducted as follows. K opioid receptor membrane solution was prepared by sequentially adding final concentrations of 0.026 μg/μl κ membrane protein (in-house), 10 μg/mL saponin, 3 μM GDP and 0.20 nM [^35S]GTPγS to binding buffer (100 mM NaCl, 10 mM MgCl2, 20 mM HEPES, pH 7.4) on ice. The prepared membrane solution (190 μl/well) was transferred to 96-shallow well polypropylene plates containing 10 μl of 20× concentrated stock solutions of agonist prepared in DMSO. Plates were incubated for 30 min at a temperature of about 25° C. with shaking. Reactions were terminated by rapid filtration onto 96-well Unifilter GF/B filter plates (Perkin Elmer, Shelton, Conn.) using a 96-well tissue harvester (Packard) and followed by three filtration washes with 200 μl ice-cold binding buffer (10 mM NaH2PO4, 10 mM Na2HPO4, pH 7.4). Filter plates were subsequently dried at 50° C. for 2-3 hours. Fifty μl/well scintillation cocktail (Perkin Elmer, Shelton, Conn.) was added and plates were counted in a Packard Top-Count for 1 min/well.
T1 sequence (P41145 whole entry): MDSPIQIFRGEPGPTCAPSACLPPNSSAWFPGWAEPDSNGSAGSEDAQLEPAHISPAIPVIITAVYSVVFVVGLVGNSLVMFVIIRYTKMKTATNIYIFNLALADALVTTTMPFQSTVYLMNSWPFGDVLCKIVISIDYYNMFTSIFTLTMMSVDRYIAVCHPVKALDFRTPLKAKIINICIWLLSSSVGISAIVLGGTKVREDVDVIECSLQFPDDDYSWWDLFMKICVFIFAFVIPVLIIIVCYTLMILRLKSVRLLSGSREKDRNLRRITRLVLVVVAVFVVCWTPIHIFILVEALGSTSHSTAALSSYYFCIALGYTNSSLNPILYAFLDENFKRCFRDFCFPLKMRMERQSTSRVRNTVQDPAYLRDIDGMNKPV
κ GTP EC50 is the concentration of a compound providing 50% of the maximal response for the compound at a κ receptor.
κ GTP Emax (%) is the maximal effect elicited by a compound relative to the effect elicited by U69,593.
In TABLE 2, activity response of certain Compounds of the Invention at the μ- and κ-opioid receptors using HEK-293 or CHO cells was determined as described above for functional assays.
For orientation: Binding of GTPγS marks nucleotide exchange on a G protein.

Assay [2] concerns the target T1, human κ opioid receptor. As to the kind of experiment: κ-opioid receptor radioligand ([3H]-U69,593) dose-displacement binding assay, HEK-293 or CHO cells. On the set-up: expressed in transfected cells; host or cells: HEK-293 cells (in-house prep). The procedure: Membranes from recombinant HEK-293 cells expressing the human K opioid receptor (cloned in house) were prepared by lysing cells in ice cold hypotonic buffer (2.5 mM MgCl2, 50 mM HEPES, pH 7.4) (10 mL/10 cm dish) followed by homogenization with a tissue grinder/Teflon pestle. Membranes were collected by centrifugation at 30,000×g for 15 min at 4° C. and pellets were resuspended in hypotonic buffer to a final concentration of 1-3 mg/mL. Protein concentrations were determined using the BioRad protein assay reagent with bovine serum albumen as standard. Aliquots of κ receptor membranes were stored at −80° C.
Radioligand dose displacement assays used 0.4 nM [^3H]-U69,593 (GE Healthcare, Piscataway, N.J.; 40 Ci/mmole) with 15 μg membrane protein (recombinant K opioid receptor expressed in HEK 293 cells; in-house prep) in a final volume of 200 μl binding buffer (5% DMSO, 50 mM Trizma base, pH 7.4). Non-specific binding was determined in the presence of 10 μM unlabeled naloxone or U69,593. All reactions were performed in 96-well polypropylene plates for 1 hr at a temperature of about 25° C. Binding reactions were terminated by rapid filtration onto 96-well Unifilter GF/C filter plates (Perkin Elmer, Shelton, Conn.) presoaked in 0.5% polyethylenimine (Sigma). Harvesting was performed using a 96-well tissue harvester (Perkin Elmer, Shelton, Conn.) followed by five filtration washes with 200 μl ice-cold binding buffer. Filter plates were subsequently dried at 50° C. for 1-2 hours. Fifty μl/well scintillation cocktail (Perkin Elmer, Shelton, Conn.) was added and plates were counted in a Packard Top-Count for 1 min/well.
(§1) In TABLE 1, binding affinity of certain Compounds of the Invention to the μ-, and κ-opioid receptors in HEK-293 or CHO cells was determined as described above.

Assay [3] has as its target T2, μ-opioid receptor (Homo sapiens, UniProt P35372). As to the kind of experiment: μ-opioid receptor radioligand ([3H]-diprenorphine) dose-displacement binding assay, HEK-293 or CHO cells. The protocol: Radioligand dose-displacement binding assays for μ-opioid receptors used 0.3 nM [^3H]-diprenorphine (Perkin Elmer, Shelton, Conn.), with […] membrane protein/well in a final volume of 500 μl binding buffer (10 mM MgCl2, 1 mM EDTA, 5% DMSO, 50 mM HEPES, pH 7.4). Reactions were carried out in the absence or presence of increasing concentrations of unlabeled naloxone. All reactions were conducted in 96-deep well polypropylene plates for 2 hr at room temperature. Binding reactions were terminated by rapid filtration onto 96-well Unifilter GF/C filter plates (Perkin Elmer, Shelton, Conn.), presoaked in 0.5% polyethylenimine using a 96-well tissue harvester (Perkin Elmer, Shelton, Conn.) followed by performing three filtration washes with 500 μl of ice-cold binding buffer. Filter plates were subsequently dried at 50° C. for 2-3 hours. BetaScint scintillation cocktail (Perkin Elmer, Shelton, Conn.) was added (50 l/well), and plates were counted using a Packard Top-Count for 1 min/well. The data were analyzed using the one-site competition curve fitting functions in GraphPad PRISM™ v. 3.0 or higher (San Diego, Calif.), or an in-house function for one-site competition curve-fitting.
as §1

The target in assay [4] is T2, μ-opioid receptor. As to the kind of experiment: μ-opioid receptor [35S]GTPγS functional assay, HEK-293 or CHO cells. It is filed as biochemical. Particulars: for Emax: HEK-293 or CHO cells, relative to DAMGO. The gist of the method:
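Agonist-stimulated [35S]GTPγS binding to recombinant μ-receptor membranes (HEK-293 or CHO) with 0.20 nM [35S]GTPγS, […] and saponin, pH 7.4, 30 min at about 25 °C, then filtration and scintillation counting. EC50 from sigmoidal fits; Emax relative to DAMGO.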

Assay [5] has as its target T1, human κ opioid receptor. As to the kind of experiment: κ-opioid receptor [35S]GTPγS functional assay, U-2 OS cells. It is filed as biochemical. On the set-up: expressed in transfected cells; host or cells: U-2 OS cells (in-house membranes). The settings on record: for Emax: U2-OS cells, relative to U69,593. The gist of the method: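 Membranes from U-2 OS cells expressing human κ receptor (0.026 μg/μl protein) were incubated with agonist, 10 μg/mL saponin, 3 μM GDP and 0.20 nM [35S]GTPγS in pH 7.4 HEPES buffer for 30 min at about 25 °C. Bound radioactivity was measured after filtration. EC50 was taken at half-maximal response; Emax is relative to U69,593.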

For assay [6], the target named is T2, μ-opioid receptor. As to the kind of experiment: μ-opioid receptor [35S]GTPγS functional assay, U-2 OS cells. The format is biochemical. On the set-up: host or cells: U-2 OS cells. Particulars: for Emax: U2-OS cells, relative to DAMGO. Summed up: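 U-2 OS membranes expressing recombinant human μ-receptor (0.026 mg/mL) were incubated with compound, […], saponin and [35S]GTPγS 0.20 nM in HEPES/NaCl/MgCl2 buffer pH 7.4 for 30 min at about 25° C. Filter-bound radioactivity gave sigmoidal fits for EC50; Emax is relative to DAMGO.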

T2 sequence (P35372 whole entry, species assumed): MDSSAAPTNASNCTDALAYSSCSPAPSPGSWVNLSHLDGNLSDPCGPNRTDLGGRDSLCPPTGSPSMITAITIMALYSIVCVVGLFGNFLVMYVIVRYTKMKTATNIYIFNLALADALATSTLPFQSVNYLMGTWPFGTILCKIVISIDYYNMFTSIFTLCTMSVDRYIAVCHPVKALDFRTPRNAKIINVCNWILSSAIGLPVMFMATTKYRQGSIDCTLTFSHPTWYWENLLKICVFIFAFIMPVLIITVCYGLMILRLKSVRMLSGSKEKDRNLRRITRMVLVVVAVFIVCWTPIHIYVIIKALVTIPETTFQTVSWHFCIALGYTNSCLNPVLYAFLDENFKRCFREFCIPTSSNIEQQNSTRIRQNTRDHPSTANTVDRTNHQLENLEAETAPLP

For the molecule `COc1ccc2c(c1)[C@]13CCN(CC4CC4)[C@H](C2)[C@]1(O)CC[C@H](O)C3` [Compound 4, (4bR,6S,8aS,9R)-11-(cyclopropylmethyl)-3-methoxy-5,6,7,8,9,10-hexahydro-8aH-9,4b-(epiminoethano)phenanthrene-6,8a-diol], the EC50 was 7860 nM in assay [1] and 6140 nM in assay [4]. Further, the values for the Emax in assay [1] and in assay [4] were 55.8 ± 5.88% and 33.7 ± 2.96%, respectively. For the same molecule, the Ki in assay [2] came out at 172 ± 12.8 nM; in assay [3], 4590 ± 356 nM.

Consider `CC(C)CCCC(=O)N[C@H]1C[C@@]2(O)[C@H]3Cc4ccc(O)cc4[C@@]2(CCN3CC2CC2)CC1O` (stereo partly drawn) [Compound 63, N-((4bR,7S,8aS,9R)-11-(cyclopropylmethyl)-3,6,8a-trihydroxy-6,7,8,8a,9,10-hexahydro-5H-9,4b-(epiminoethano)phenanthren-7-yl)-5-methylhexanamide], for which the EC50 in assay [1] turned out to be 23 ± 4.32 nM; in assay [5] it was 38.8 ± 7.82 nM; in assay [6], 63.2 ± 8.31 nM; in assay [4], 81.2 ± 8.25 nM. Also, the maximal effect (Emax) in assay [1] came to 21.2 ± 0.44%; in assay [5] it was 84.3 ± 1.67%; in assay [6], 58.7 ± 1.33%; in assay [4], 23.3 ± 1.33%. Moreover, the affinity in assay [2] corresponds to a Ki of 11.5 ± 0.97 nM.

Take `CC(C)C(=O)N[C@H]1C[C@@]2(O)[C@H]3Cc4ccc(O)cc4[C@@]2(CCN3CC2CC2)CC1O` (stereo partly drawn) [Compound 50, N-((4bR,7S,8aS,9R)-11-(cyclopropylmethyl)-3,6,8a-trihydroxy-6,7,8,8a,9,10-hexahydro-5H-9,4b-(epiminoethano)phenanthren-7-yl)isobutyramide]: the EC50 was 29.2 ± 2.21 nM in assay [1], 47.3 ± 3.7 nM in assay [5], 113 ± 60.8 nM in assay [6] and > 20000 nM in assay [4]. Also, the Emax was determined as 45.7 ± 2.19% in assay [1], 91.7 ± 1.33% in assay [5], 12.8 ± 0.85% in assay [6] and 1% in assay [4].

As to `CCC(=O)N[C@H]1C[C@@]2(O)[C@H]3Cc4ccc(O)cc4[C@@]2(CCN3CC2CC2)C[C@H]1O` [Compound 56, N-((4bR,6R,7S,8aS,9R)-11-(cyclopropylmethyl)-3,6,8a-trihydroxy-6,7,8,8a,9,10-hexahydro-5H-9,4b-(epiminoethano)phenanthren-7-yl)propionamide], the concentration giving a half-maximal response (EC50) in assay [1] is 71.8 ± 8.76 nM; in assay [5], 29.3 ± 4.34 nM; in assay [6], 95 ± 16.4 nM; in assay [4], > 20000 nM. In addition, the Emax in assay [1] was determined as 53 ± 0.58%; in assay [5] it was 105 ± 3.38%; in assay [6] it was 19.3 ± 1.45%; in assay [4] it was 1%. Moreover, the inhibition constant Ki in assay [2] stood at 7.19 ± 0.87 nM; in assay [3], 54.2 ± 12.5 nM.

As to `COc1ccc2c(c1)[C@]13CCN(CC4CC4)[C@H](C2)[C@]1(O)CC[C@@H](CC(=O)O)C3` [Compound 9, 2-((4bS,6R,8aS,9R)-11-(cyclopropylmethyl)-8a-hydroxy-3-methoxy-6,7,8,8a,9,10-hexahydro-5H-9,4b-(epiminoethano)phenanthren-6-yl)acetic acid], in assay [1], a half-maximal effect (EC50) was put at 597 ± 163 nM. In assay [2], this molecule displayed a Ki of 597 ± 163 nM. In assay [6], this molecule came in with an EC50 of 574 ± 87.2 nM and an Emax of 36.3 ± 0.88%.

Consider `CC(C)CN[C@@H]1C[C@@]2(O)[C@H]3Cc4ccc(O)cc4[C@@]2(CCN3CC2CC2)C[C@@H]1O` [Compound 34, (4bR,6S,7R,8aS,9R)-11-(cyclopropylmethyl)-7-(isobutylamino)-5,6,7,8,9,10-hexahydro-8aH-9,4b-(epiminoethano)phenanthrene-3,6,8a-triol], for which the EC50 in assay [1] was 0.55 ± 0.23 nM; in assay [5], 0.81 ± 0.12 nM; in assay [6] it was 3.84 ± 1.53 nM; in assay [4] it was > 20000 nM. Also, the Emax in assay [1] is 32 ± 1.35%; in assay [5], 71 ± 1.53%; in assay [6] it was 20.3 ± 1.76%; in assay [4] it was 1%.

Turning to `N=C(N)NCC(=O)N[C@@H]1CC[C@@]2(O)[C@H]3Cc4ccc(O)cc4[C@@]2(CCN3CC2CC2)C1` [Compound 20, N-((4bR,6R,8aS,9R)-11-(cyclopropylmethyl)-3,8a-dihydroxy-6,7,8,8a,9,10-hexahydro-5H-9,4b-(epiminoethano)phenanthren-6-yl)-2-guanidinoacetamide], the 50% effective concentration (EC50) is 62.3 ± 2.37 nM in assay [5], 394 ± 57.8 nM in assay [6] and > 20000 nM in assay [4]. The results for the Emax in assay [5], in assay [6] and in assay [4] were 111 ± 2.4%, 62.7 ± 4.26% and 7.33 ± 0.88%, respectively. Besides, the Ki in assay [2] amounted to 3.23 ± 0.7 nM; in assay [3] it was 449 ± 53.5 nM.

In the case of `NCCCCN[C@@H]1CC[C@@]2(O)[C@H]3Cc4ccc(O)cc4[C@@]2(CCN3CC2CC2)C1` [Compound 14, (4bR,6R,8aS,9R)-6-((4-aminobutyl)amino)-11-(cyclopropylmethyl)-5,6,7,8,9,10-hexahydro-8aH-9,4b-(epiminoethano)phenanthrene-3,8a-diol], the EC50 in assay [5] is 5.47 ± 0.3 nM; in assay [6] it was 85.6 ± 3.31 nM; in assay [4], > 20000 nM. Also, the maximal effect (Emax) came to 112 ± 5.13% in assay [5], 74.3 ± 2.19% in assay [6] and 8.67 ± 2.96% in assay [4]. For the same molecule, the Ki in assay [2] was found to be 0.56 ± 0.052 nM; in assay [3] it was 124 ± 43.5 nM.

The EC50 is the concentration at which the effect is half-maximal. High values mean weaker potency, low ones greater potency. One may read the Emax as the size of the effect at its maximum, as opposed to the concentration needed. In general, Ki refers to the dissociation constant of the complex between target and ligand, obtained from inhibition or displacement.
